Assay results from US20080275018A1, “ANTIBACTERIAL AMIDE-MACROCYCLES V” (AiCuris GmbH & Co. KG, priority 2005, published 2008).
Converted amounts (≈) assume the structure as drawn. Counter-ions that a name gives are not always drawn. Like-named read-outs stand apart in the source and are kept apart here.

Experiments:
[1] = system: E. faecium L4001; assay: Minimum inhibitory concentration (MIC), E. faecium L4001; type: cell-based, Enterococcus faecium; details: Enterococcus faecium
Description: (§1) The minimum inhibitory concentration (MIC) is the minimum concentration of an antibiotic with which the growth of a test microbe is inhibited over 18-24 h. The inhibitor concentration can in these cases be determined by standard microbiological methods (see, for example, The National Committee for Clinical Laboratory Standards. Methods for dilution antimicrobial susceptibility tests for bacteria that grow aerobically; approved standard-fifth edition. NCCLS document M7-A5 [ISBN 1-56238-394-9]. NCCLS, 940 West Valley Road, Suite 1400, Wayne, Pa. 19087-1898 USA, 2000). The MIC of the compounds of the invention is determined in the liquid dilution test on the 96-well microtiter plate scale. The bacterial microbes are cultivated in a minimal medium (18.5 mM Na2HPO4, 5.7 mM KH2PO4, 9.3 mM NH4Cl, 2.8 mM MgSO4, 17.1 mM NaCl, 0.033 μg/ml thiamine hydrochloride, 1.2 μg/ml nicotinic acid, 0.003 μg/ml biotin, 1% glucose, 25 μg/ml of each proteinogenic amino acid with the exception of phenylalanine; [H.-P. Kroll; unpublished]) with the addition of 0.4% BH broth (test medium). In the case of Enterococcus faecium L4001, heat-inactivated fetal calf serum (FCS; GibcoBRL, Germany) is added to the test medium in a final concentration of 10%. Overnight cultures of the test microbes are diluted to an OD578 of 0.001 (to 0.01 in the case of enterococci) in fresh test medium, and incubated 1:1 with dilutions of the test substances (1:2 dilution steps) in test medium ([…]). The cultures are incubated at 37° C. for 18-24 hours; enterococci in the presence of 5% CO2.
(§2) The lowest substance concentration in each case at which no visible bacterial growth occurs any longer is defined as the MIC.

[2] = system: S. aureus 133; assay: Minimum inhibitory concentration (MIC), S. aureus 133; type: cell-based, Staphylococcus aureus
Description: (§3) The minimum inhibitory concentration (MIC) is the minimum concentration of an antibiotic with which the growth of a test microbe is inhibited over 18-24 h. The inhibitor concentration can in these cases be determined by standard microbiological methods (see, for example, The National Committee for Clinical Laboratory Standards. Methods for dilution antimicrobial susceptibility tests for bacteria that grow aerobically; approved standard-fifth edition. NCCLS document M7-A5 [ISBN 1-56238-394-9]. NCCLS, 940 West Valley Road, Suite 1400, Wayne, Pa. 19087-1898 USA, 2000). The test substances are thereby initially provided in 1:2 dilution series into 96-well round-bottom microtiter plates (Greiner) double-concentrated in 50 μl of test medium. The aerobically growing test microbes (e.g. staphylococci and enterococci), which are incubated overnight on Columbia blood agar plates (Becton-Dickinson), are, after resuspension in 0.9% NaCl, adjusted to a microbe count of about 5×10^7 microbes/ml and then diluted 1:150 in cation-adjusted MH medium (test medium). 50 μL of this suspension are pipetted onto the test preparations provided in the microtiter plates. The cultures are incubated at 37° C. for 18-24 hours. For microaerophilically growing microbes (e.g. streptococci), 2% lysed horse blood in the final concentration is added to the medium and the cultures are incubated in the presence of 5% CO2. The lowest substance concentration in each case at which no visible bacterial growth occurs any longer is defined as the MIC and is reported in μg/ml.
as §1, §2
(§4) The minimum inhibitory concentration (MIC) is the minimum concentration of an antibiotic with which the growth of a test microbe is inhibited over 18-24 h. The inhibitor concentration can in these cases be determined by standard microbiological methods with modified medium in an agar dilution test (see, for example, The National Committee for Clinical Laboratory Standards. Methods for dilution antimicrobial susceptibility tests for bacteria that grow aerobically; approved standard-fifth edition. NCCLS document M7-A5 [ISBN 1-56238-394-9]. NCCLS, 940 West Valley Road, Suite 1400, Wayne, Pa. 19087-1898 USA, 2000). The bacterial microbes are cultivated on 1.5% agar plates which contain 20% defibrinated horse blood. […]

[3] = molecular target: S. aureus 133 Translation; assay: S. aureus in vitro transcription-translation assay (firefly luciferase, S30 extract); type: biochemical; details: 50% inhibition of the translation of firefly luciferase
Text: For the construction of a reporter plasmid which can be used in an in vitro transcription-translation assay from S. aureus the plasmid pBESTluc (Promega Corporation, USA) is used. The E. coli tac promoter present in this plasmid in front of the firefly luciferase is replaced by the capA1 promoter with corresponding Shine-Dalgarno sequence from S. aureus. The primers CAPFor 5′-[…]-[…] GCCA-3′ and CAPRev 5′-[…]-3′ are used for this. The primer CAPFor contains the capA1 promoter, the ribosome binding site and the 5′ region of the luciferase gene. After PCR using pBESTluc as template it is possible to isolate a PCR product which contains the firefly luciferase gene with the fused capA1 promoter. This is, after restriction with ClaI and HindIII, ligated into the vector pBESTluc which has likewise been digested with ClaI and HindIII. The resulting plasmid pla can be replicated in E. coli and be used as template in the S. aureus in vitro transcription-translation test.
Six litres of BHI medium are inoculated with a 250 ml overnight culture of an S. aureus Strain and allowed to grow at 37° C. until the OD600 nm is 2-4. The cells are harvested by centrifugation and washed in 500 ml of cold buffer A (10 mM Tris acetate, pH 8.0, 14 mM magnesium acetate, 1 mM DTT, 1 M KCl). After renewed centrifugation, the cells are washed in 250 ml of cold buffer A with 50 mM KCl, and the resulting pellets are frozen at −20° C. for 60 min. The pellets are thawed on ice in 30 to 60 min and taken up to a total volume of 99 ml in buffer B (10 mM Tris acetate, pH 8.0, 20 mM magnesium acetate, 1 mM DTT, 50 mM KCl). 1.5 ml portions of lysostaphin (0.8 mg/ml) in buffer B are provided in 3 precooled centrifuge cups and each mixed with 33 ml of the cell suspension. The samples are incubated at 37° C., shaking occasionally, for 45 to 60 min, before 150 μl of a 0.5 M DTT solution are added. The lysed cells are centrifuged at 30 000×g and 4° C. for 30 min. The cell pellet is taken up in buffer B and then centrifuged again under the same conditions, and the collected supernatants are combined. The supernatants are centrifuged again under the same conditions, and 0.25 volumes of buffer C (670 mM Tris acetate, pH 8.0, 20 mM magnesium acetate, 7 mM Na3 phosphoenolpyruvate, 7 mM DTT, 5.5 mM ATP, 70 μM amino acids (complete from Promega), 75 μg of pyruvate kinase (Sigma, Germany)/ml are added to the upper ⅔ of the supernatant. The samples are incubated at 37° C. for 30 min. The supernatants are dialysed against 2 l of dialysis buffer (10 mM Tris acetate, pH 8.0, 14 mM magnesium acetate, 1 mM DTT, 60 mM potassium acetate) in a dialysis tube with a 3500 Da cut-off with one buffer change at 4° C. overnight. The dialysate is concentrated to a protein concentration of about 10 mg/ml by
covering the dialysis tube with cold PEG 8000 powder (Sigma, Germany) at 4° C. The S30 extracts can be stored in aliquots at −70° C.
The inhibition of protein biosynthesis of the compounds can be shown in an in vitro transcription-translation assay. The assay is based on the cell-free transcription and translation of firefly luciferase using the reporter plasmid pla as template and cell-free S30 extracts obtained from S. aureus. The activity of the resulting luciferase can be detected by luminescence measurement.
The amount of S30 extract or plasmid pla to be employed must be tested anew for each preparation in order to ensure an optimal concentration in the test. […] of the substance to be tested, dissolved in 5% DMSO, are introduced into an MTP. Then […] of a suitably concentrated plasmid solution pla are added. […]

[4] = system: S. aureus T17; assay: Minimum inhibitory concentration (MIC), biphenomycin-resistant S. aureus T17; type: cell-based, Staphylococcus aureus; details: Staphylococcus aureus; biphenomycin-resistant S. aureus T17
Description: as §3, §1, §2, §4

[5] = system: S. aureus 133; assay: Systemic infection with S. aureus 133 (mouse sepsis model); type: in vivo, mouse (female CFW1); details: i.p. infection with S. aureus 133, i.v. therapy 30 minutes after infection, survival recorded for 6 days
Description: For this purpose, S. aureus 133 cells are cultured overnight in BH broth (Oxoid, Germany). The overnight culture was diluted 1:100 in fresh BH broth and expanded for 3 hours. The bacteria which are in the logarithmic phase of growth are centrifuged and washed twice with a buffered physiological saline solution. A cell suspension in saline solution with an extinction of 50 units is then adjusted in a photometer (Dr Lange LP 2W). After a dilution step (1:15), this suspension is mixed 1:1 with a 10% mucine suspension. 0.2 ml of this infection solution is administered i.p. per 20 g of mouse. This corresponds to a cell count of about 1-2×10^6 microbes/mouse. The i.v. therapy takes place 30 minutes after the infection. Female CFW1 mice are used for the infection experiment. The survival of the animals is recorded for 6 days. The animal model is adjusted so that untreated animals die within 24 h after the infection.

`NCCC[C@H](N)CNC(=O)CNC(=O)[C@@H]1Cc2cccc(c2)-c2ccc(O)c(c2)C[C@H](N)C(=O)N[C@@H](C[C@@H](O)CN)C(=O)N1` [Example 2, (8S,11S,14S)-14-Amino-11-[(2R)-3-amino-2-hydroxypropyl]-N-(2-{[(2S)-2,5-diaminopentyl]-amino}-2-oxoethyl)-17-hydroxy-10,13-dioxo-9,12-diazatricyclo[14.3.1.1^2,6]henicosa-1(20),2(21),3,5,16,18-hexaene-8-carboxamide tetrahydrochloride] was tested, and the MIC ([1]; L4001, read-out: MIC E. faecium L4001) was 2 µg/mL, the MIC ([2]; Staphylococcus aureus, 133, read-out: MIC S. aureus 133) was 1 µg/mL and the IC50 [3] was 70 nM. For the same molecule, the MIC [4] was 1 µg/mL and the “therapeutic effect ED100” value [5] was 1.25 mg/kg.

In the case of `CN1C(=O)[C@H](C[C@@H](O)CN)NC(=O)[C@@H](N)Cc2cc(ccc2O)-c2cccc(c2)C[C@H]1C(=O)NCCC(=O)NC[C@@H](N)CCCN` [Example 68], the MIC ([1]; E. faecium L4001, 10% FCS in test medium, read-out: MIC E. faecium L4001) is reported as 8 µg/mL (≈ 12.5 µM), the MIC ([2]; Staphylococcus aureus, 133; read-out: MIC S. aureus 133) is reported as 1 µg/mL (≈ 1.56 µM) and the IC50 [3] is reported as 200 nM. It also gave an MIC [4] of 1 µg/mL (≈ 1.56 µM).
